Source: patent publication US4661483A, “Antihypercholesterolemic lactone compounds, compositions and use” (Merck & Co., Inc., priority 1986, dated 1987)

System: HMG-CoA reductase
Assay: HMG-CoA Reductase Inhibition Assay (in vitro, [14C]HMG-CoA to mevalonolactone)
Format: biochemical
Details: IC50 compared with that of compactin determined simultaneously; compactin assigned 100 (footnote b60 prints 10); tested as sodium salt of dihydroxy acid form; solubilized rat liver microsomal enzyme
Protocol: The intrinsic HMG-CoA reductase inhibition activity of the claimed compounds is measured in the in vitro protocol published in J. Med. Chem., 28, p. 347-358 (1985) and described below:
Isolation of HMG-CoA Reductase
Male Holtzman Sprague-Dawley rats (225-250 g) were kept on reversed lighting and fed Purina rat chow containing 3% cholestyramine for 7 days preceding their sacrifice by CO2 asphyxiation. Livers were removed 6 hours into the dark cycle and used immediately to prepare microsomes. HMG-CoA reductase was solubilized from the freshly prepared microsome by the method of Heller and Shrewsbury [J. Biol. Chem., 1976, 251, 3815] and purified through the second ammonium sulfate precipitation step as described by Kleinsek et al. [Proc. Natl. Acad. Sci. USA, 1977, 74, 1431]. The enzyme preparation was tested for HMG-CoA reductase potency and diluted with 100 mM phosphate buffer (pH 7.2) so that 100 μl of the enzyme solution, when added to the assay control, gave a value of 50,000-60,000 dpm. The enzyme preparation was stored at -80° C.
HMG-CoA Reductase Inhibition Assay
The assay is essentially the procedure of Shefer et al. [J. Lipid Res., 1972, 13, 402]. The complete assay medium contained the following in a total volume of 0.8 ml: phosphate buffer, pH 7.2, 100 mM; MgCl2, 3 mM; NADP, 3 mM; glucose 6-phosphate, 10 mM; glucose-6-phosphate dehydrogenase, 3 enzyme units; reduced glutathione, 50 mM; HMG-CoA (glutaryl-3-^14 C, New England Nuclear), 0.2 mM (0.1 μCi); and partially purified enzyme stock solution, 100 μL.
Test compounds or compactin (after first being converted to the sodium salt of their dihydroxy acid form in situ by addition of 1N NaOH (1 equivalent) were added to the assay system in 10-μL volumes at multiconcentration levels. After a 40-minute incubation at 37° C. with shaking and exposure to air, the reaction was stopped by the addition of 0.4 mL of 8N HCl. After an additional 30-minute incubation period at 37° C. to ensure the complete lactonization of mevalonic acid to mevalonolactone, 0.2 ml of the mixture was added to an 0.5×5.0 cm column containing 100-200 mesh Bio-Rex 5, chloride form (Bio-Rad), wetted with distilled water, as described by Alberts et al. [J. Proc. Natl. Acad. Sci. U.S.A., 1980, 77, 3957]. The unreacted [^14 C]HMG-CoA was absorbed on the resin and the [^14 C]mevalonolactone was eluted with distilled water (2×1 ml) directly into 7-ml scintillation vials. Five milliliters of Aquasol-2 (New England Nuclear) was added to each vial, and radioactivity was measured in a Packard Tri Carb Prias scintillation counter. IC50 values were determined by plotting percentage inhibition against test compound concentration and fitting a straight line to the resulting data by using the least-squares method. For estimation of relative inhibitory potencies, compactin was assigned a value of 100 and the IC50 value of the test compound was compared with that of compactin determined simultaneously.

Compound	Relative Potency
CCN(CC)C(=O)C(C)(C)C(=O)OC1CC(C)C=C2C=CC(C)C(CCC(O)CC(O)CC(=O)O)C21 (centres unmarked)	22
CC1C=C2C=CC(C)C(CCC(O)CC(O)CC(=O)O)C2C(OC(=O)C(C)(C)C(=O)N(C)C)C1 (centres unmarked)	34
CC1C=C2C=CC(C)C(CCC(O)CC(O)CC(=O)O)C2C(OC(=O)C(C)(C)CC(=O)N(C)C)C1 (centres unmarked)	16

The next lines start with the values.

Relative Potency	Compound
20	CC1C=C2C=CC(C)C(CCC(O)CC(O)CC(=O)O)C2C(OC(=O)C(C)(C)C(=O)N2CCOCC2)C1 (centres unmarked)
13	CNC(=O)C(C)(C)C(=O)OC1CC(C)C=C2C=CC(C)C(CCC(O)CC(O)CC(=O)O)C21 (centres unmarked)
